Measurements reported in patent US12102705B2, “Peptides having inhibitory activity on muscarinic receptor M3” (AZIENDE CHIMICHE RIUNITE ANGELINI FRANCESCO—A.C.R.A.F. …, priority 2018, dated 2024).
Structures can show the parent of a compound that is named as a salt. Peptide text beside a SMILES is read from it. * marks the point of attachment. Palmitoyl = CCCCCCCCCCCCCCCC(=O)*; Myristoyl = CCCCCCCCCCCCCC(=O)*

What was measured:
Type in all cases: cell-based
[1] = system: human epidermal keratinocytes (HEKa); experiment: MTT cell viability assay in keratinocytes; conditions: as TFA-salt, any concentration assessed; keratinocytes and fibroblasts
Experimental: This example evaluated the effects of the tested peptides on human epidermal keratinocytes and dermal fibroblasts cell viability. The 3-(4,5-dimethyl-2-thiazolyl)-2,5-diphenyl-2H-tetrazolium bromide (MTT) assay was used to that monitor cell proliferation and viability based on the capacity of the mitochondrial dehydrogenase enzyme to break and transform the tetrazolium rings of MTT.
Epidermal keratinocytes were seeded in a previously coated 96 well-plate at 50-60% confluence in 100 μL of supplemented medium. Dermal fibroblasts were seeded in a 96 well-plate at 70% confluence in 100 μL supplemented medium. 24 hours after seeding, medium was replaced by fresh supplemented medium containing peptides dissolved at concentration range between 0.1 and 100 μM or SDS as reference of 100% toxicity or DMSO as vehicle for peptides. All test substances were incubated for 24 hours at 37° C. and 5% CO2. Afterwards, medium was replaced by 0.5 mg/mL of MTT solution for 4 h in complete medium. Then, medium was carefully removed and 150 μL/well of DMSO were added to solubilize formazan crystals. Plate was protected from light, shaken for 60 seconds and optical density was measured at 570 nm with a reference filter of 620 nm. Toxicity values were calculated as percentages by considering maximum cytotoxic effect to SDS-treated cells and minimum as non-treated cells. Table G details effects of Seq. ID No 1, 5, 6 and 7 peptides on keratinocytes and fibroblasts as percentage of cell viability inhibition.

[2] = target: T1, human muscarinic receptor M3 (Homo sapiens, UniProt P20309); experiment: Inhibition of M3-acetylcholine activation, Fluo-4 NW calcium fluorescence; conditions: 50 min incubation, 10 nM acetylcholine; for inhibition at 10 µM / inhibition at 50 µM / inhibition at 100 µM: 50 min
T1 construct: expressed in transfected cells; cultured in Ham's F-12 medium
Experimental: (§1) Epithelial stable cell line constitutively expressing human muscarinic receptor M3 was used to assess peptides activity. Cells were seeded in 96-well plates at 50% cell confluence in 100 μL of complete Ham's F-12 medium. After 24 hours, medium was removed and cells were incubated with 90 μL/well of a solution of the peptides of the invention at 100, 50 or 10 μM or DMSO as vehicle. Peptides were dissolved in Fluo-4 NW (Invitrogen) fluorescent calcium probe assay buffer containing Probenecid, following manufacturer's instructions for 50 min at 37° C. in a CO2 incubator. Afterwards, M3 activity was determined by reading the fluorescence in a FLUOstar Galaxy reader (BMG LabTechnologies) using 485 nm filter for excitation and 520 nm for emission, recording signal before and after M3 activation with 10 nM acetylcholine. Fluorescence measurements were normalized to acetylcholine maximum fluorescence signal in vehicle treated cells. Atropine (100 nM) was used as positive control for inhibition. Inhibition values of M3 activity were calculated as percentages by considering maximum fluorescence corresponding to acetylcholine-M3 activation and minimum as non-stimulated cells. Table D details inhibition values of M3 activity inhibition obtained for the peptides of invention.

[3] = target: T1, human muscarinic receptor M3; experiment: Dose-response inhibitory effect on M3 activity (IC50)
Experimental: as §1
Characterization of Seq. ID No. 1, 3-8 peptides efficiency was obtained by calculating half maximal inhibitory concentration (IC50). For this purpose, experimental procedure regarding cell culture and fluorescent calcium probe assay was followed as described on Example 2. Peptides were assessed at concentrations between 0.1 and 100 μM and incubated for 1 hour together with Fluo-4 NW probe. Afterwards, M3 activity was determined by reading the fluorescence in a FLUOstar Galaxy reader (BMG LabTechnologies) using 485 nm filter for excitation and 520 nm for emission, recording signal before and after M3 activation with acetylcholine. Fluorescence measurements were standardized with regard to the maximum fluorescence signal detected with acetylcholine stimulation in vehicle treated cells. Inhibition values of M3 activity were calculated as percentages by considering maximum fluorescence corresponding to acetylcholine-M3 activation and minimum as non-stimulated cells. Percentage inhibition data was fitted to a sigmoidal curve to obtain IC50. Table F details inhibition values for IC50

[4] = target: T1, human muscarinic receptor M3; experiment: Time-dependent inhibition of M3 activity, Fluo-4 NW calcium fluorescence; conditions: peptide 50 μM, read-out: % Inhibition hM3 receptor activity
Experimental: Peptides of invention were designed to target the intracellular region of M3. Therefore, minimum time required to detect inhibitory effect on M3 activity was evaluated. For this purpose, inhibitory effect of peptides Seq. […] Epithelial stable cell line constitutively expressing human muscarinic receptor M3 was used to assess peptides activity. Cells were seeded in 96-well plates at 50% cell confluence in 100 μL of complete Ham's F-12 medium. After 24 hours, medium was removed and cells were incubated with 90 μL/well of Fluo-4 NW (Invitrogen) fluorescent calcium probe assay buffer containing probenecid, following manufacturer's instructions at 37° C. in a CO2 incubator. Peptides (50 μM), vehicle and atropine were incubated either with the probe (1 hour pre-incubation) or during fluorescence reading (direct effect). Afterwards, M3 activity was recorded for 20 cycles and direct effect peptides were added on cycle 3 after baseline assessment. Acetylcholine was added on cycle 13. Therefore, direct effect of peptides was monitored for 25 minutes. Inhibition values of M3 activity were calculated as percentages by considering maximum fluorescence corresponding to vehicle or non-treated cells acetylcholine-M3 activation and minimum as non-stimulated cells. Table E details inhibition values of M3 activity inhibition obtained for the peptides of invention.

[5] = 25 min, 25 minutes (direct effect)
[6] = 60 minutes (1 hour pre-incubation)

T1 sequence (P20309 whole entry): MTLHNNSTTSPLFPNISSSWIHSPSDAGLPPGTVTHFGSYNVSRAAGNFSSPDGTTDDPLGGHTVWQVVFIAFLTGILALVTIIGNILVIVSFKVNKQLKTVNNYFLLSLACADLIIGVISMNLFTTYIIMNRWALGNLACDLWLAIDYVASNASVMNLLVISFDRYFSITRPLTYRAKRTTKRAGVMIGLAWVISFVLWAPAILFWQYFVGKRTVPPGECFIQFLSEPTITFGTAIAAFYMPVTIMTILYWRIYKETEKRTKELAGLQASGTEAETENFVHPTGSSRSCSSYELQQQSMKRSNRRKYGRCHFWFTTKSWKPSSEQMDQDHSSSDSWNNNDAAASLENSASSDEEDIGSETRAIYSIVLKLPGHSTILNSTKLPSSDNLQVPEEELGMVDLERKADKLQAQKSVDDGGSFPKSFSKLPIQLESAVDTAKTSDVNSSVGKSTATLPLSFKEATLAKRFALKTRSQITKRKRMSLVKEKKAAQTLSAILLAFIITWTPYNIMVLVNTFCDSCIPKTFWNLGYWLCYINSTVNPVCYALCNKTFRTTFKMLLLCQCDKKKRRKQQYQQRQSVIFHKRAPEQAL

Compound	% M3 inhibition ([2]; peptide 10 μM)	IC50 [3]	inhibition at 50 µM [4, 5]	inhibition at 50 µM [4, 6]	inhibition at 10 µM ([2]; peptide 10 μM)	inhibition at 50 µM ([2]; peptide 50 μM)	inhibition at 100 µM ([2]; peptide 100 μM)	further results
Ac-RVMYKMNKRDY-NH2 [Seq. ID No. 7 Acetyl (TFA salt)]	–	–	–	–	–	–	–	effect on cell proliferation [1]: did not affect cell proliferation
Seq. ID No. 6 Acetyl: Nt-acetyl RMYKMMAGMYLR, C terminus amidated (Ac-RMYKMMAGMYLR-NH2)	3.0%	–	–	–	–	–	–	% M3 inhibition ([2]; peptide 50 μM): 26.4%; % M3 inhibition ([2]; peptide 100 μM): 32.5%
CCCCCCCCCCCCCC(=O)N[C@@H](CCCNC(=N)N)C(=O)N[C@H](C(=O)N[C@@H](CCSC)C(=O)N[C@@H](Cc1ccccc1)C(=O)N[C@@H](CCCCN)C(=O)N[C@@H](CCSC)C(=O)N[C@@H](Cc1ccccc1)C(=O)N[C@@H](CCCCN)C(=O)N[C@@H](CCCNC(=N)N)C(=O)N[C@@H](CC(=O)O)C(=O)N[C@@H](Cc1ccc(O)cc1)C(N)=O)C(C)C [Seq. ID No. 8 Myristoyl] (Myristoyl-RVMFKMFKRDY-NH2)	–	9.8 µM	6.1%	87.1%	42.5%	71.7%	93.8%	–
Seq. ID No. 5 Acetyl: Nt-acetyl WMFLK, C terminus amidated (Ac-WMFLK-NH2)	3.9%	–	–	–	–	–	–	% M3 inhibition ([2]; peptide 50 μM): 6.2%; % M3 inhibition ([2]; peptide 100 μM): 15.1%
Seq. ID No. 7 Acetyl: Nt-acetyl RVMYKMNKRDY, C terminus amidated (Ac-RVMYKMNKRDY-NH2)	8.6%	–	–	–	–	–	–	% M3 inhibition ([2]; peptide 50 μM): 8.3%; % M3 inhibition ([2]; peptide 100 μM): 20.6%
Seq. ID No. 6 Palmitoyl: Nt-palmitoyl RMYKMMAGMYLR, C terminus amidated (Palmitoyl-RMYKMMAGMYLR-NH2)	34.5%	–	–	–	–	–	–	–
CCCCCCCCCCCCCC(=O)N[C@@H](CCCNC(=N)N)C(=O)N[C@@H](CCSC)C(=O)N[C@@H](Cc1ccc(O)cc1)C(=O)N[C@@H](CCCCN)C(=O)N[C@@H](CCSC)C(=O)N[C@@H](CCSC)C(=O)N[C@@H](C)C(=O)NCC(=O)N[C@@H](CCSC)C(=O)N[C@@H](Cc1ccc(O)cc1)C(=O)N[C@@H](CC(C)C)C(=O)N[C@@H](CCCNC(=N)N)C(N)=O [Seq. ID No. 6 Myristoyl] (Myristoyl-RMYKMMAGMYLR-NH2)	–	55.2 µM	-20.2%	54.7%	14.8%	56.4%	92.1%	–
Ac-RMYKMMAGMYLR-NH2 [Seq. ID No. 6 Acetyl (TFA salt)]	–	–	–	–	–	–	–	effect on cell proliferation [1]: did not affect cell proliferation
Seq. ID No. 2 Acetyl: Nt-acetyl WMRLK, C terminus amidated (Ac-WMRLK-NH2)	0.0%	–	–	–	–	–	–	% M3 inhibition ([2]; peptide 50 μM): 9.1%; % M3 inhibition ([2]; peptide 100 μM): 24.6%
Seq. ID No. 7 Palmitoyl: Nt-palmitoyl RVMYKMNKRDY, C terminus amidated (Palmitoyl-RVMYKMNKRDY-NH2)	47.4%	–	–	–	–	–	–	–
Seq. ID No. 8 Palmitoyl: Nt-palmitoyl RVMFKMFKRDY, C terminus amidated (Palmitoyl-RVMFKMFKRDY-NH2)	32.7%	–	–	–	–	–	–	–
CCCCCCCCCCCCCCCC(=O)N[C@@H](Cc1c[nH]c2ccccc12)C(=O)N[C@@H](CCSC)C(=O)N[C@@H](Cc1ccccc1)C(=O)N[C@@H](CC(C)C)C(=O)N[C@@H](CCCCN)C(N)=O [Seq. ID No. 5 Palmitoyl (TFA salt)] (Palmitoyl-WMFLK-NH2)	–	–	–	–	–	–	–	effect on cell proliferation [1]: did not affect cell proliferation
CCCCCCCCCCCCCCCC(=O)N[C@@H](Cc1c[nH]c2ccccc12)C(=O)N[C@@H](CCSC)C(=O)N[C@@H](CCCNC(=N)N)C(=O)N[C@@H](CC(C)C)C(N)=O [Seq. ID No. 1 Palmitoyl] (Palmitoyl-WMRL-NH2)	–	38.3 µM	25.1%	69.5%	15.4%	70.9%	95.6%	–
CCCCCCCCCCCCCCCC(=O)N[C@@H](Cc1c[nH]c2ccccc12)C(=O)N[C@@H](CCSC)C(=O)N[C@@H](Cc1ccccc1)C(=O)N[C@@H](CC(C)C)C(=O)N[C@@H](CCCCN)C(N)=O [Seq. ID No. 5 Palmitoyl] (Palmitoyl-WMFLK-NH2)	–	61.1 µM	-7.1%	84.4%	0%	45.7%	80.6%	–
CCCCCCCCCCCCCCCC(=O)N[C@@H](Cc1c[nH]c2ccccc12)C(=O)N[C@@H](CCSC)C(=O)N[C@@H](CCCNC(=N)N)C(=O)N[C@@H](CC(C)C)C(N)=O [Seq. ID No. 1 Palmitoyl (TFA salt)] (Palmitoyl-WMRL-NH2)	–	–	–	–	–	–	–	effect on cell proliferation [1]: did not affect cell proliferation
CCCCCCCCCCCCCCCC(=O)N[C@@H](Cc1c[nH]c2ccccc12)C(=O)N[C@@H](CCSC)C(=O)N[C@@H](CC(N)=O)C(=O)N[C@@H](CC(C)C)C(=O)N[C@@H](CCCCN)C(=O)N[C@H](C(N)=O)[C@@H](C)O [Seq. ID No. 4 Palmitoyl] (Palmitoyl-WMNLKT-NH2)	–	8 µM	11.5%	69.1%	35.3%	59.6%	60.6%	–
CCCCCCCCCCCCCC(=O)N[C@@H](CCCNC(=N)N)C(=O)N[C@H](C(=O)N[C@@H](CCSC)C(=O)N[C@@H](Cc1ccc(O)cc1)C(=O)N[C@@H](CCCCN)C(=O)N[C@@H](CCSC)C(=O)N[C@@H](CC(N)=O)C(=O)N[C@@H](CCCCN)C(=O)N[C@@H](CCCNC(=N)N)C(=O)N[C@@H](CC(=O)O)C(=O)N[C@@H](Cc1ccc(O)cc1)C(N)=O)C(C)C [Seq. ID No. 7 Myristoyl] (Myristoyl-RVMYKMNKRDY-NH2)	–	55 µM	16.4%	82.7%	15.9%	54.8%	92.4%	–
Seq. ID No. 8 Acetyl: Nt-acetyl RVMFKMFKRDY, C terminus amidated (Ac-RVMFKMFKRDY-NH2)	21.5%	–	–	–	–	–	–	% M3 inhibition ([2]; peptide 50 μM): 12.4%; % M3 inhibition ([2]; peptide 100 μM): 26.1%
CCCCCCCCCCCCCCCC(=O)N[C@@H](Cc1c[nH]c2ccccc12)C(=O)N[C@@H](CCSC)C(=O)N[C@@H](CCCNC(=N)N)C(=O)N[C@@H](CC(C)C)C(=O)N[C@@H](CCCCN)C(=O)N[C@@H](C)C(N)=O [Seq. ID No. 3 Palmitoyl] (Palmitoyl-WMRLKA-NH2)	–	12.7 µM	16.4%	73%	41%	73.7%	75.7%	–
